# Assay results as given in patent publication US20250000843A1, “LIGNAN-INSPIRED COMPOUNDS, METHODS OF MAKING, AND USING THEREOF” (IOWAIBO, INC., priority 2023, published 2025).
# pIC50: −log10 of the molar value.
# Target: telomerase (Homo sapiens, UniProt O14746)
# Test: Q-TRAP telomerase activity in PC3 prostate cancer cells
# Type: cell-based
# Design: allow the enzymatic addition of telomeric DNA repeats by endogenous telomerase; endogenous in cells; host or cells: PC3 prostate cancer cells (protein extract of lysed cell pellets); key to Significance of RTA difference vs. control: No: non-significant; Yes (*): p < 0.05; Yes (**): p < 0.01; Yes (***): p < 0.001; Yes (****): p < 0.0001
# Conditions: for telomerase inhibition effect: PC3 prostate cancer cell line
# Method: The general mechanism of the Q-TRAP technique involves cellular pellets being lysed for protein extraction which is then subsequently quantified and stored under specific conditions to avoid protein degradation. Protein obtained in the process was used within 72 hours and samples were stored at 4° C. Telomerase protein extracts are then incubated with a specific oligonucleotide substrate to allow the enzymatic addition of telomeric DNA repeats by endogenous telomerase. Following the enzymatic reaction, telomerase extension products are then amplified and quantified by real-time qPCR. In real time PCR, a positive reaction is detected by accumulation of a fluorescent signal. The Ct (cycle threshold) is defined as the number of cycles required for fluorescence to cross the threshold (i.e.: exceeds background levels). […] Data are reported as relative telomerase activity (RTA). […] Telomeric repeat amplification protocol (TRAP) was modified for quantitative real-time PCR (Q-TRAP) and was used to determine the effect of dibenzyl butyl lactone derivative on telomerase activity in prostate cancer cell. The same methods as used in Example 3 were employed. The same abbreviation scheme as presented in Table 7 is used throughout this example as well.
# telomerase, sequence (O14746 whole entry): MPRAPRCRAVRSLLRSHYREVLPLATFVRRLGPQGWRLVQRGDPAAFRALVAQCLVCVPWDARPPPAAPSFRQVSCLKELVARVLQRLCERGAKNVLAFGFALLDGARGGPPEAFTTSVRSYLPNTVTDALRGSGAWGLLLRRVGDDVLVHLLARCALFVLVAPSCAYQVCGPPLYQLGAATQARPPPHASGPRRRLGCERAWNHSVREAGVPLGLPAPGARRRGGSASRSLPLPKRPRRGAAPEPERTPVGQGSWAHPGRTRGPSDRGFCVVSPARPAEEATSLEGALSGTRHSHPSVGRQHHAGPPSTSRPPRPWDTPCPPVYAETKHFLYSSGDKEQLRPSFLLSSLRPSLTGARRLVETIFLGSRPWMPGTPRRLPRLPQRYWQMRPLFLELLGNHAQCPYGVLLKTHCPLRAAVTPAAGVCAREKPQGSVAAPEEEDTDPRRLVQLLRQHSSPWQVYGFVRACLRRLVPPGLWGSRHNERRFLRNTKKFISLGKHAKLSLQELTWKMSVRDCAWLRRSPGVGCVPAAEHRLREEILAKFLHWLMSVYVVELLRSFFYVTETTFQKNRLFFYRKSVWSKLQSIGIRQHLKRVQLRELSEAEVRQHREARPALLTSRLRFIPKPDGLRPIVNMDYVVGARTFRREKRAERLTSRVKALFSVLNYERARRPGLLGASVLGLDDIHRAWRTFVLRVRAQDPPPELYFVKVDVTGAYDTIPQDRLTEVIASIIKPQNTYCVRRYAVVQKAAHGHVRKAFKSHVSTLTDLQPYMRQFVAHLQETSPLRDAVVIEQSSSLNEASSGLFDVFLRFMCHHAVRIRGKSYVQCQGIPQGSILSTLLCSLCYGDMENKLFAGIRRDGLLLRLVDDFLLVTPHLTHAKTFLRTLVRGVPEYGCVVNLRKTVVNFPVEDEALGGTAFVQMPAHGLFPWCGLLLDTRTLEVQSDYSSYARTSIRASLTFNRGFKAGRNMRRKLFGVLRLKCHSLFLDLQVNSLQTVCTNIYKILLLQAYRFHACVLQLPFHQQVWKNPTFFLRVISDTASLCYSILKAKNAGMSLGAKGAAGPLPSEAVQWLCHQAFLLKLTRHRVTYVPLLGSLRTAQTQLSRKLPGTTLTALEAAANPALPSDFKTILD
# telomerase, sequence (O60832 whole entry partner): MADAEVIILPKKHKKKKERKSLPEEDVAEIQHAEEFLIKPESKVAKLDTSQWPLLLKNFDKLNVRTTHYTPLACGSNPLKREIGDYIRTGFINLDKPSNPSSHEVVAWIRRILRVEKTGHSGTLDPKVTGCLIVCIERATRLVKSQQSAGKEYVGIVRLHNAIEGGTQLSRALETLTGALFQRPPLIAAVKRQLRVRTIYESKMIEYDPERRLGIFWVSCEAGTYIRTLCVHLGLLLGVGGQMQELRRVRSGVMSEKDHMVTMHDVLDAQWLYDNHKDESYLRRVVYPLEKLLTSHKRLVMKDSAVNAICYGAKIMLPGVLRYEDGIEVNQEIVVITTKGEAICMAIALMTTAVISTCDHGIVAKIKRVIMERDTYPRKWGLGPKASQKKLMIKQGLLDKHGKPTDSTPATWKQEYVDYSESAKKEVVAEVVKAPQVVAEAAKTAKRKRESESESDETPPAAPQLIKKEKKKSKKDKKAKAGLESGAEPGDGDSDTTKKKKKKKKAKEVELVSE
# telomerase, sequence (Q9NPE3 whole entry partner): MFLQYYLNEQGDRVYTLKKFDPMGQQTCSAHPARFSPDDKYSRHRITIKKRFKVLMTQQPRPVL
# telomerase, sequence (Q9NX24 whole entry partner): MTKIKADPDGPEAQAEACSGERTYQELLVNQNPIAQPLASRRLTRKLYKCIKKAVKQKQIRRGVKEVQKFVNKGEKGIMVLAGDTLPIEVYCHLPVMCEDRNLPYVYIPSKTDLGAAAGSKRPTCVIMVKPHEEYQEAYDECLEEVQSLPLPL
# telomerase, sequence (Q9NY12 whole entry partner): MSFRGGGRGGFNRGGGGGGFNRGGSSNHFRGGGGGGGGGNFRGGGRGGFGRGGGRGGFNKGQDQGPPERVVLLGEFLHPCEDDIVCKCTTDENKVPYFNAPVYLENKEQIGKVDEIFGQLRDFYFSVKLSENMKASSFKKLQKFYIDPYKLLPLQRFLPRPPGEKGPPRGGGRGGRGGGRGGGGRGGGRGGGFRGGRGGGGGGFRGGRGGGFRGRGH
# telomerase, sequence (Q9BUR4 whole entry partner): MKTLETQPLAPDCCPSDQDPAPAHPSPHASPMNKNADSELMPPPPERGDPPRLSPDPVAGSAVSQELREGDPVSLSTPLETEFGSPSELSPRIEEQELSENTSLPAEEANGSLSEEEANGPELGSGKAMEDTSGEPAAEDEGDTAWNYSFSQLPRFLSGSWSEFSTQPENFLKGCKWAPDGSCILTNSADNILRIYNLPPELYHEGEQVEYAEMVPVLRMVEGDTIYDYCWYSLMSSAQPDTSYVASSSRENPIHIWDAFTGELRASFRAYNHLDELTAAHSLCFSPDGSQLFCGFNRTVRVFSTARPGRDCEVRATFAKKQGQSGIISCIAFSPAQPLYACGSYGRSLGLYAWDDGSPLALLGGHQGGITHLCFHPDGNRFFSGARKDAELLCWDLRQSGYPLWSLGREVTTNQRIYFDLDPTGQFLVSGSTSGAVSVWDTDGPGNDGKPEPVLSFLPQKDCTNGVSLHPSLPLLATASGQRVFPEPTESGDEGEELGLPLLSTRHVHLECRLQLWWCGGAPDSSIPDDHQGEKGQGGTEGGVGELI
Compound,"Telomerase Activity RTA (%) (PC3, 2.5 μM, 24 Hours)","Telomerase Activity RTA (%) (PC3, 2.5 μM, 48 Hours)","Telomerase Activity RTA (%) (PC3, 2.5 μM, 72 Hours)","Telomerase Activity RTA (%) (PC3, 5 μM, 24 Hours)","Telomerase Activity RTA (%) (PC3, 5 μM, 48 Hours)","Telomerase Activity RTA (%) (PC3, 5 μM, 72 Hours)","Telomerase Activity RTA (%) (PC3, 10 μM, 24 Hours)","Telomerase Activity RTA (%) (PC3, 10 μM, 48 Hours)","Telomerase Activity RTA (%) (PC3, 10 μM, 72 Hours)","Telomerase Activity RTA (%) (PC3, 20 μM, 24 Hours)","Telomerase Activity RTA (%) (PC3, 20 μM, 48 Hours)","Telomerase Activity RTA (%) (PC3, 20 μM, 72 Hours)","Telomerase Activity RTA (%) (PC3, 40 μM, 24 Hours)","Telomerase Activity RTA (%) (PC3, 40 μM, 48 Hours)","Telomerase Activity RTA (%) (PC3, 40 μM, 72 Hours)","pIC50 (PC3, 24 h)","telomerase activity levels of treated groups compared to control (PC3, 24 hours)","Significance of RTA difference vs. control (PC3, 24 hours, 2.5 μM)","Significance of RTA difference vs. control (PC3, 24 hours, 5 μM)","Significance of RTA difference vs. control (PC3, 24 hours, 10 μM)",also measured
"O=C1OC[C@H](Cc2cccc(O)c2)[C@H]1Cc1cccc(O)c1 (racemic) [Enterolactone, reference compound]",61.02%,3.50%,13.88%,55.90%,3.31%,10.65%,62.45%,17.89%,12.63%,56.77%,25.39%,5.15%,43.75%,70.42%,6.57%,4.66,lower telomerase activity levels compared to control,No,No,No,"Significance of RTA difference vs. control (PC3, 24 hours, 20 μM): No; Significance of RTA difference vs. control (PC3, 24 hours, 40 μM): Yes (*) (Yes (*): p < 0.05); pIC50 (PC3, 48 h): 7.30; telomerase activity levels of treated groups compared to control (PC3, 48 hours): four treated groups presented a reduction in RTA; Significance of RTA difference vs. control (PC3, 48 hours, 2.5 μM): Yes (***) (Yes (***): p < 0.001); Significance of RTA difference vs. control (PC3, 48 hours, 5 μM): Yes (***) (Yes (***): p < 0.001); Significance of RTA difference vs. control (PC3, 48 hours, 10 μM): Yes (**) (Yes (**): p < 0.01); Significance of RTA difference vs. control (PC3, 48 hours, 20 μM): Yes (**) (Yes (**): p < 0.01); Significance of RTA difference vs. control (PC3, 48 hours, 40 μM): No; pIC50 (PC3, 72 h): 4.97; telomerase activity levels of treated groups compared to control (PC3, 72 hours): no significant differences were detected between control and treated groups; Significance of RTA difference vs. control (PC3, 72 hours, 2.5 μM): No; Significance of RTA difference vs. control (PC3, 72 hours, 5 μM): No; Significance of RTA difference vs. control (PC3, 72 hours, 10 μM): No; Significance of RTA difference vs. control (PC3, 72 hours, 20 μM): No; Significance of RTA difference vs. control (PC3, 72 hours, 40 μM): No"
"O=C1OCC(Cc2ccc3c(c2)OCO3)/C1=C\c1cccc(O)c1 (single isomer, unassigned) [Enantiomer A, 3-[(3,4-dimethoxyphenyl)cyclopentyl], 4-[(3-hydroxyphenol)methyl]oxolan-2-one]",49.67%,21.48%,18.63%,44.11%,7.86%,15.77%,20.76%,3.60%,19.40%,22.61%,2.51%,5.20%,29.78%,6.23%,1.48%,5.29,lower telomerase activity levels compared to control,No,Yes (*) (Yes (*): p < 0.05),Yes (**) (Yes (**): p < 0.01),"Significance of RTA difference vs. control (PC3, 24 hours, 20 μM): Yes (***) (Yes (***): p < 0.001); Significance of RTA difference vs. control (PC3, 24 hours, 40 μM): Yes (**) (Yes (**): p < 0.01); pIC50 (PC3, 48 h): 5.33; telomerase activity levels of treated groups compared to control (PC3, 48 hours): lower telomerase activity levels compared to control; Significance of RTA difference vs. control (PC3, 48 hours, 2.5 μM): No; Significance of RTA difference vs. control (PC3, 48 hours, 5 μM): Yes (*) (Yes (*): p < 0.05); Significance of RTA difference vs. control (PC3, 48 hours, 10 μM): Yes (**) (Yes (**): p < 0.01); Significance of RTA difference vs. control (PC3, 48 hours, 20 μM): Yes (**) (Yes (**): p < 0.01); Significance of RTA difference vs. control (PC3, 48 hours, 40 μM): Yes (*) (Yes (*): p < 0.05); pIC50 (PC3, 72 h): 4.73; telomerase activity levels of treated groups compared to control (PC3, 72 hours): lower telomerase activity levels compared to control; Significance of RTA difference vs. control (PC3, 72 hours, 2.5 μM): No; Significance of RTA difference vs. control (PC3, 72 hours, 5 μM): Yes (*) (Yes (*): p < 0.05); Significance of RTA difference vs. control (PC3, 72 hours, 10 μM): No; Significance of RTA difference vs. control (PC3, 72 hours, 20 μM): Yes (*) (Yes (*): p < 0.05); Significance of RTA difference vs. control (PC3, 72 hours, 40 μM): Yes (**) (Yes (**): p < 0.01); telomerase inhibition effect: exhibits a telomerase inhibition effect in a PC3 prostate cancer cell line that is more prolonged throughout all time points"
"O=C1OCC(Cc2ccc3c(c2)OCO3)/C1=C\c1cccc(O)c1 (single isomer, unassigned) [Enantiomer B, 3-[(3,4-dimethoxyphenyl)cyclopentyl], 4-[(3-hydroxyphenol)methyl]oxolan-2-one]",48.73%,126.77%,13.05%,36.48%,112.17%,11.67%,23.87%,102.96%,12.58%,31.05%,154.17%,7.53%,14.44%,128.83%,13.49%,5.52,lower telomerase activity levels compared to control,Yes (*) (Yes (*): p < 0.05),Yes (**) (Yes (**): p < 0.01),Yes (**) (Yes (**): p < 0.01),"Significance of RTA difference vs. control (PC3, 24 hours, 20 μM): Yes (**) (Yes (**): p < 0.01); Significance of RTA difference vs. control (PC3, 24 hours, 40 μM): Yes (***) (Yes (***): p < 0.001); pIC50 (PC3, 48 h): 4.81; telomerase activity levels of treated groups compared to control (PC3, 48 hours): the differences were not found to be significant; Significance of RTA difference vs. control (PC3, 48 hours, 2.5 μM): No; Significance of RTA difference vs. control (PC3, 48 hours, 5 μM): No; Significance of RTA difference vs. control (PC3, 48 hours, 10 μM): No; Significance of RTA difference vs. control (PC3, 48 hours, 20 μM): No; Significance of RTA difference vs. control (PC3, 48 hours, 40 μM): No; pIC50 (PC3, 72 h): 5.62; telomerase activity levels of treated groups compared to control (PC3, 72 hours): without any particular differences between the treated and control groups; Significance of RTA difference vs. control (PC3, 72 hours, 2.5 μM): No; Significance of RTA difference vs. control (PC3, 72 hours, 5 μM): No; Significance of RTA difference vs. control (PC3, 72 hours, 10 μM): No; Significance of RTA difference vs. control (PC3, 72 hours, 20 μM): Yes (*) (Yes (*): p < 0.05); Significance of RTA difference vs. control (PC3, 72 hours, 40 μM): No; telomerase inhibition effect: exhibits a telomerase inhibition effect at 24 hours"
